Reference: ChEMBL document CHEMBL1151984, “Dietary derived sesquiterpenes from Phyllodesmium lizardensis” (J Nat Prod, 2009)
Calls of active or inactive are those of the source.

How the values were obtained:
Format in all cases: functional, organism-based
Mycotypha microspora = test: Antifungal activity against Mycotypha microspora at 50 ug/disk
Aspergillus ruber = test: Antifungal activity against Eurotium rubrum at 50 ug/disk
Microbotryum violaceum = test: […] activity against Microbotryum violaceum at 50 ug/disk
Escherichia coli = test: Antibacterial activity against Escherichia coli at 50 ug/disk
Priestia megaterium = test: Antibacterial activity against Bacillus megaterium at 50 ug/disk

Measured: Activity

CC(=O)O[C@@H]1C[C@H]2C(C)=CC[C@H](C(C)C)[C@H]2C=C1C
inactive: all assays above

CC1=C[C@@H]2[C@@H](C(C)C)CC=C(C)[C@@H]2C[C@H]1O
inactive: all assays above
